Measurements reported in patent US20240327364A1, “THERAPEUTIC TARGETING OF GPR68 TO INDUCE FERROPTOSIS” (University Of Maryland, Baltimore, priority 2023, published 2024).

Key:
CSNK2A2 = CSNK2A2 (Homo sapiens, UniProt P19784); test: KinomeScan; type: binding; details: read-out: % Control
IP1 = molecular target: T1, IP1 (Homo sapiens, UniProt P43119); test: GPCR Profiler; type: cell-based
T1 construct: host or cells: Chem-1 cells with promiscuous Gα15

SgK110 = molecular target: T2, SgK110 (Homo sapiens, UniProt P0C264); test: KinomeScan; type: binding; details: read-out: % Control
T2 construct: purchased DiscoveRx (Fremont, CA)

SYK = molecular target: T3, SYK (Homo sapiens, UniProt P43405); test: KinomeScan; type: binding; details: read-out: % Control
T3 construct: purchased DiscoveRx (Fremont, CA)

FGFR1 = molecular target: T4, FGFR1 (Homo sapiens, UniProt P11362); test: KinomeScan; type: binding; details: read-out: % Control
T4 construct: purchased DiscoveRx (Fremont, CA)

MAP3K3 = molecular target: T5, MAP3K3 (Homo sapiens, UniProt Q99759); test: KinomeScan; type: binding; details: read-out: % Control
T5 construct: purchased DiscoveRx (Fremont, CA)

CX3CR1 = molecular target: T6, CX3CR1 (Homo sapiens, UniProt P49238); test: GPCR Profiler; type: cell-based
T6 construct: host or cells: Chem-1 cells with Gα15

YES = molecular target: T7, YES (Homo sapiens, UniProt P07947); test: KinomeScan; type: binding; details: read-out: % Control
T7 construct: purchased DiscoveRx

CDK11 = molecular target: T8, CDK11 (Homo sapiens, UniProt Q9BWU1); test: KinomeScan; type: binding; details: read-out: % Control
T8 construct: purchased DiscoveRx (KinomeScan service)

[1] = molecular target: T9, RSK2(Kin.Dom.1-N-terminal) (Homo sapiens, UniProt P51812); test: KinomeScan; type: binding; details: read-out: % Control
T9 construct: RSK2(Kin.Dom.1-N-terminal); purchased DiscoveRx (Fremont, CA)

V1B = molecular target: T10, V1B (Homo sapiens, UniProt P47901); test: GPCR Profiler; type: cell-based
T10 construct: host or cells: Chem-1 cells with Gα15

IRAK1 = molecular target: T11, IRAK1 (Homo sapiens, UniProt P51617); test: KinomeScan; type: binding; details: read-out: % Control
T11 construct: purchased DiscoveRx (Fremont, CA)

CCR1 = molecular target: T12, CCR1 (Homo sapiens, UniProt P32246); test: GPCR Profiler; type: cell-based
T12 construct: host or cells: Chem-1 cells with Gα15

TNIK = molecular target: T13, TNIK (Homo sapiens, UniProt Q9UKE5); test: KinomeScan; type: binding; details: read-out: % Control
T13 construct: purchased DiscoveRx (Fremont, CA)

LZK = molecular target: T14, LZK (Homo sapiens, UniProt O43283); test: KinomeScan; type: binding; details: read-out: % Control
T14 construct: purchased DiscoveRx

ACVR1 = molecular target: T15, ACVR1 (Homo sapiens, UniProt Q04771); test: KinomeScan; type: binding; details: read-out: % Control
T15 construct: purchased DiscoveRx

TRKC = molecular target: T16, TRKC (Homo sapiens, UniProt Q16288); test: KinomeScan; type: binding; details: read-out: % Control
T16 construct: purchased DiscoveRx (Fremont, CA)

MET = molecular target: T17, MET (Homo sapiens, UniProt P08581); test: KinomeScan; type: binding; details: read-out: % Control
T17 construct: purchased DiscoveRx (Fremont, CA)

MLK3 = molecular target: T18, MLK3 (Homo sapiens, UniProt Q16584); test: KinomeScan; type: binding; details: read-out: % Control
T18 construct: purchased DiscoveRx

EPHA1 = molecular target: T19, EPHA1 (Homo sapiens, UniProt P21709); test: KinomeScan; type: binding; details: read-out: % Control
T19 construct: purchased DiscoveRx (Fremont, CA)

MYLK = molecular target: T20, MYLK (Homo sapiens, UniProt Q15746); test: KinomeScan; type: binding; details: read-out: % Control
T20 construct: purchased DiscoveRx

PIK3CA(I800L) = molecular target: T21, PIK3CA(I800L) (Homo sapiens, UniProt P42336, I800L); test: KinomeScan; type: binding; details: read-out: % Control
T21 construct: purchased DiscoveRx (Fremont, CA)

P2Y11 = molecular target: T22, P2Y11 (Homo sapiens, UniProt Q96G91); test: GPCR Profiler; type: cell-based
T22 construct: host or cells: Chem-1 cells expressing Gα15

FAK = molecular target: T23, FAK (Homo sapiens, UniProt Q05397); test: KinomeScan; type: binding; details: read-out: % Control
T23 construct: purchased DiscoveRx (Fremont, CA)

PIK3C2B = molecular target: T24, PIK3C2B (Homo sapiens, UniProt O00750); test: KinomeScan; type: binding; details: read-out: % Control
T24 construct: purchased DiscoveRx (Fremont, CA)

RIPK4 = molecular target: T25, RIPK4 (Homo sapiens, UniProt P57078); test: KinomeScan; type: binding; details: read-out: % Control
T25 construct: purchased DiscoveRx (Fremont, CA)

SRMS = molecular target: T26, SRMS (Homo sapiens, UniProt Q9H3Y6); test: KinomeScan; type: binding; details: read-out: % Control
T26 construct: purchased DiscoveRx (Fremont, CA)

Motilin = molecular target: T27, Motilin (Homo sapiens, UniProt O43193); test: GPCR Profiler; type: cell-based
T27 construct: host or cells: Chem-1 cells expressing Gα15

PIK3CB = molecular target: T28, PIK3CB (Homo sapiens, UniProt P42338); test: KinomeScan; type: binding; details: read-out: % Control
T28 construct: purchased DiscoveRx (Fremont, CA)

HPK1 = molecular target: T29, HPK1 (Homo sapiens, UniProt Q92918); test: KinomeScan; type: binding; details: read-out: % Control
T29 construct: purchased DiscoveRx (Fremont, CA)

MKK7 = molecular target: T30, MKK7 (Homo sapiens, UniProt O14733); test: KinomeScan; type: binding; details: read-out: % Control
T30 construct: purchased DiscoveRx

CDK4-cyclinD1 = molecular target: T31, CDK4-cyclinD1 (Homo sapiens, UniProt P11802); test: KinomeScan; type: binding; details: read-out: % Control
T31 construct: purchased DiscoveRx (KinomeScan service)

[2] = molecular target: T32, TYK2(JH2domain-pseudokinase) (Homo sapiens, UniProt P29597); test: KinomeScan; type: binding; details: read-out: % Control
T32 construct: TYK2(JH2domain-pseudokinase); purchased DiscoveRx

MKNK2 = molecular target: T33, MKNK2 (Homo sapiens, UniProt Q9HBH9); test: KinomeScan; type: binding; details: read-out: % Control
T33 construct: purchased DiscoveRx

[3] = molecular target: T34, RPS6KA4(Kin.Dom.1-N-terminal) (Homo sapiens, UniProt O75676); test: KinomeScan; type: binding; details: read-out: % Control
T34 construct: RPS6KA4(Kin.Dom.1-N-terminal); purchased DiscoveRx (Fremont, CA)

NDR1 = molecular target: T35, NDR1 (Homo sapiens, UniProt Q15208); test: KinomeScan; type: binding; details: read-out: % Control
T35 construct: purchased DiscoveRx

Ghrelin = molecular target: T36, Ghrelin (Homo sapiens, UniProt Q92847); test: GPCR Profiler; type: cell-based
T36 construct: host or cells: Chem-1 cells expressing Gα15
T36 sequence (Q92847 whole entry): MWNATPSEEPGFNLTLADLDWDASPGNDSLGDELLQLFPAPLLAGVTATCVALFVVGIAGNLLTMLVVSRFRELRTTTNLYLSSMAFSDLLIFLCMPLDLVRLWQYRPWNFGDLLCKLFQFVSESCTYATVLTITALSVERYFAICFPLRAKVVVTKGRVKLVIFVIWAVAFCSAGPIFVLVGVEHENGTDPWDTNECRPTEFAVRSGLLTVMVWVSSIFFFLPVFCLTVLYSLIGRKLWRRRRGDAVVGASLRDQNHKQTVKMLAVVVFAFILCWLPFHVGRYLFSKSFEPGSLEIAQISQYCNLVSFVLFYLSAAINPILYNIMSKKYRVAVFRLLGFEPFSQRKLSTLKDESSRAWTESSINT

T12 sequence (P32246 whole entry, species assumed): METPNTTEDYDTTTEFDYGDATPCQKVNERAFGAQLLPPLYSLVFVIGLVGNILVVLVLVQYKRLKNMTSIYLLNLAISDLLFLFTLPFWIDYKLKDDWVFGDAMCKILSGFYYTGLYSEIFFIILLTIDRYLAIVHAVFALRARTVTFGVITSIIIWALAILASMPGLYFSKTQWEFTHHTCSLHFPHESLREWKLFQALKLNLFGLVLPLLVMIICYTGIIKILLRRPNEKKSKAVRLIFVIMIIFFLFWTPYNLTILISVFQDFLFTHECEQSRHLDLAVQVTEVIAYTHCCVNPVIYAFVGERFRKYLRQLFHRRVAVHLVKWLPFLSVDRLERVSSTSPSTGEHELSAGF
T6 sequence (P49238 whole entry, species assumed): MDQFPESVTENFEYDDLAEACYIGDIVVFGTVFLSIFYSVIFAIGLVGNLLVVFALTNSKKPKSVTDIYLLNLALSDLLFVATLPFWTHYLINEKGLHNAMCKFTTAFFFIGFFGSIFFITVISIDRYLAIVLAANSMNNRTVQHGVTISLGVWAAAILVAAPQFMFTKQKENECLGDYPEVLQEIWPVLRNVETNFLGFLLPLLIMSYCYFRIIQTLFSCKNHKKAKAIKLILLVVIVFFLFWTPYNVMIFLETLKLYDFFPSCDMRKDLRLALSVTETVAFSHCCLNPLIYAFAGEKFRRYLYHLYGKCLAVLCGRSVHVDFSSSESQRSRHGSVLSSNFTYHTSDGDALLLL
T22 sequence (Q96G91 whole entry, species assumed): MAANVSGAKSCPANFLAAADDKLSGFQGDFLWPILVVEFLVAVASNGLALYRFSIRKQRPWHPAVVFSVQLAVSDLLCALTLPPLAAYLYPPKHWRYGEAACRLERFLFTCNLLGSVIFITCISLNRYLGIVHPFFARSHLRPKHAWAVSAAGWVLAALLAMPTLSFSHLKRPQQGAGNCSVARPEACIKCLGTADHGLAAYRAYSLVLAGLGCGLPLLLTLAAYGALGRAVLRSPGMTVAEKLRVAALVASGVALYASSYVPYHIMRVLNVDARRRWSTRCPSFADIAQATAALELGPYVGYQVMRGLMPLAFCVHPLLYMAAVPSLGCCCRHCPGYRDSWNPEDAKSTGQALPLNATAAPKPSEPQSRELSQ
T1 sequence (P43119 whole entry): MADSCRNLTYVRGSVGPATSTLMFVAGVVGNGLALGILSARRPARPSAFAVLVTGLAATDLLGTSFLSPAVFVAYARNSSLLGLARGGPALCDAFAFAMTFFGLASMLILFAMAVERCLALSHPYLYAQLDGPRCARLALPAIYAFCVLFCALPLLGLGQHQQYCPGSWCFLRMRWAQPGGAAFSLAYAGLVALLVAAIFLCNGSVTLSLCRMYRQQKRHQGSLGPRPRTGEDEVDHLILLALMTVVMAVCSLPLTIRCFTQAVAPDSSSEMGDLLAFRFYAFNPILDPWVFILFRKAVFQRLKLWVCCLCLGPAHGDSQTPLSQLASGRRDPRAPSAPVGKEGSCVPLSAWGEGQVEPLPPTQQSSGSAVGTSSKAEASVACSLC
T10 sequence (P47901 whole entry): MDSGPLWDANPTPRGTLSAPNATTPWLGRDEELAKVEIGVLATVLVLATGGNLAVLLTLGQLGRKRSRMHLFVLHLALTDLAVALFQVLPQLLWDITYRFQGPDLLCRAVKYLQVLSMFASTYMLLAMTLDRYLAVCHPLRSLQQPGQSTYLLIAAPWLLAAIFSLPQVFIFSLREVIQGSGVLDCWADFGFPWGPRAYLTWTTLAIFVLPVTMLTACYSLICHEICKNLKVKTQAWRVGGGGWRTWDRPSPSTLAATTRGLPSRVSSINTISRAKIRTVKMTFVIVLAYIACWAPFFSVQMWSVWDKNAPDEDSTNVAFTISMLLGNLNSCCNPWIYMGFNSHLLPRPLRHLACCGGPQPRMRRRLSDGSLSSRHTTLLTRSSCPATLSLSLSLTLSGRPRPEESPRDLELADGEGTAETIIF
T27 sequence (O43193 whole entry): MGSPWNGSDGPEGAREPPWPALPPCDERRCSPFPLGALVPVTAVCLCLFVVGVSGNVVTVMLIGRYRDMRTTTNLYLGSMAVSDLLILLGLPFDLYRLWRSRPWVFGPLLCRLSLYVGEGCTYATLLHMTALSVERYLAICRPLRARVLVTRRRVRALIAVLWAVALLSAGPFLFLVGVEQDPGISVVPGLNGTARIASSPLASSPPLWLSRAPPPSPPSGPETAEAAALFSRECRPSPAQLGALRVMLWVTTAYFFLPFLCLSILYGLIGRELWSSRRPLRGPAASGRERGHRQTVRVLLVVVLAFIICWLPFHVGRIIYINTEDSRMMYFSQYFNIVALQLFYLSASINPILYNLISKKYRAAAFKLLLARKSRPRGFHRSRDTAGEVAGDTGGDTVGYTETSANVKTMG
T34 sequence (O75676 33-301 limits assumed): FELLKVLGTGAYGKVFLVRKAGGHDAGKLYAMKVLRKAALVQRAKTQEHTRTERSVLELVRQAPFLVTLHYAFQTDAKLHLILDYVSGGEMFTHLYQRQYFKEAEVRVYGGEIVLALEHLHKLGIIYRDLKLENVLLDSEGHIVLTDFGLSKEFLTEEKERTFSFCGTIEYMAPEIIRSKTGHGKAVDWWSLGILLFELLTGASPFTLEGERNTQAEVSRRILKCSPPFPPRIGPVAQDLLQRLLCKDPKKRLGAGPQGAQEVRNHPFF
T17 sequence (P08581 25-1390): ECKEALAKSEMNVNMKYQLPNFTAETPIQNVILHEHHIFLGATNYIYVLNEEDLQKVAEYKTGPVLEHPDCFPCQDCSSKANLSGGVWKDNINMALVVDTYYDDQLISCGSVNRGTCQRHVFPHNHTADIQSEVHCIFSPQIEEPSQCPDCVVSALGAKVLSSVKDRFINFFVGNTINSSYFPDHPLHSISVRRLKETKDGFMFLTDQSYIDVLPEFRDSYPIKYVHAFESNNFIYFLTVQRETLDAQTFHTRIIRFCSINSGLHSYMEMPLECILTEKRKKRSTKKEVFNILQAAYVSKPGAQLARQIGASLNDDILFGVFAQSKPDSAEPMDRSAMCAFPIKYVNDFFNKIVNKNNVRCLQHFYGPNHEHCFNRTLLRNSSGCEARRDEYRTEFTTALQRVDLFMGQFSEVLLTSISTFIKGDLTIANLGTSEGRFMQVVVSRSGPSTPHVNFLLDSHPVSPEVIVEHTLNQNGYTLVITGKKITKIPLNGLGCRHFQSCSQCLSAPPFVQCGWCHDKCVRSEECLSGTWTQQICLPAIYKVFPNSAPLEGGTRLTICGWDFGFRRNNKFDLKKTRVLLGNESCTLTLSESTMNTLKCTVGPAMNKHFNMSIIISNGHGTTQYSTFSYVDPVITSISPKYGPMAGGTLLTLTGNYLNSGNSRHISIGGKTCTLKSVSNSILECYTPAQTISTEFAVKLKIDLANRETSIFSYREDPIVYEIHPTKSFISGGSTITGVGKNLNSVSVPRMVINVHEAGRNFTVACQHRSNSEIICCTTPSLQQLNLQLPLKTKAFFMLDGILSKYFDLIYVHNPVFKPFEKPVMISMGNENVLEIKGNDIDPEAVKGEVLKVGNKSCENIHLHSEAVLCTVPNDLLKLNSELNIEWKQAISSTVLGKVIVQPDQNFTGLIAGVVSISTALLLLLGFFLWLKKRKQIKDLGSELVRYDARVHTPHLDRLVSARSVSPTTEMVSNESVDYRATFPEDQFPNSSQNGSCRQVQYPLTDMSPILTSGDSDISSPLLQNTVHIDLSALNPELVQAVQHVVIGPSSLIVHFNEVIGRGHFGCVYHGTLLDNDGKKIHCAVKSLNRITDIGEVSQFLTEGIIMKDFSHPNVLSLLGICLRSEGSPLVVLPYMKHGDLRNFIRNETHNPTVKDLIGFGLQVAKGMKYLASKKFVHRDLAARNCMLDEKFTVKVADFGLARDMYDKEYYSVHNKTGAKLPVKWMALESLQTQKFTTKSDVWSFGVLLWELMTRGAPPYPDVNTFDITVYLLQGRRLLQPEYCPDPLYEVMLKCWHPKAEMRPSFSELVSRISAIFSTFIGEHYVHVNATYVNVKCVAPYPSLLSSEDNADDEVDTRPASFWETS
T31 sequence (P11802 whole entry): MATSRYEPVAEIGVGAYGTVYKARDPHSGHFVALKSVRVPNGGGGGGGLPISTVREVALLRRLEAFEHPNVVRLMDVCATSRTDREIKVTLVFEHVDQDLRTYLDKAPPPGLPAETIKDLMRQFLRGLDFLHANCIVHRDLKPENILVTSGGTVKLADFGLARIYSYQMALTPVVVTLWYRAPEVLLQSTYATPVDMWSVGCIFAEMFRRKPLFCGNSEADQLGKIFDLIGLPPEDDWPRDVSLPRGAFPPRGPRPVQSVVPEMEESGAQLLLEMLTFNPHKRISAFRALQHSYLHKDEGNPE
T31 sequence (P24385 whole entry partner): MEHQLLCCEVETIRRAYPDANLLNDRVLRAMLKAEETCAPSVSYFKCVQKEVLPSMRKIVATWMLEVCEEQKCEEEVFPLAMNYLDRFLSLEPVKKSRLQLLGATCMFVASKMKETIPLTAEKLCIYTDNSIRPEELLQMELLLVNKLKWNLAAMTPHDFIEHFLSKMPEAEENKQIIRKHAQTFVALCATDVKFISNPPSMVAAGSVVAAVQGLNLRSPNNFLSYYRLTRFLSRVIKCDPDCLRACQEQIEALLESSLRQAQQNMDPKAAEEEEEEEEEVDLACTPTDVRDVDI

Compound `CCc1ccc2c(c1)C1(NN=C(c3cccc4ccccc34)S1)C(=O)N2` (centres unmarked) [OGM1, 5-ethyl-5′-naphthalen-1-ylspiro[1H-indole-3,2′-3H-1,3,4-thiadiazole]-2-one] has a remaining binding at 10 µM (CSNK2A2) of 93%, an Antagonism (IP1; 10 uM) of −2 and an Agonism (IP1; 12.5 uM) of −0.5. The remaining binding at 10 µM (SgK110) was 100%, the remaining binding at 10 µM (SYK) was 98% and the remaining binding at 10 µM (FGFR1) was 100%. The remaining binding at 10 µM (MAP3K3) was 72%, the Antagonism (CX3CR1; 10 uM) was −12.1 and the Agonism (CX3CR1; 12.5 uM) was 0.3. It also gave a remaining binding at 10 µM (YES) of 100%, a remaining binding at 10 µM (CDK11) of 100% and a remaining binding at 10 µM [1] of 95%. The Antagonism (V1B; 10 uM) was −2.8, the Agonism (V1B; 12.5 uM) was −0.1 and the remaining binding at 10 µM (IRAK1) was 100%. For the same compound, the Antagonism (CCR1; 10 uM) was −0.6, the Agonism (CCR1; 12.5 uM) was −0.3 and the remaining binding at 10 µM (TNIK) was 71%. The remaining binding at 10 µM (LZK) was 100%, the remaining binding at 10 µM (ACVR1) was 100% and the remaining binding at 10 µM (TRKC) was 62%. The remaining binding at 10 µM (MET) was 100%, the remaining binding at 10 µM (MLK3) was 100% and the remaining binding at 10 µM (EPHA1) was 92%. The remaining binding at 10 µM (MYLK) was 91%, the remaining binding at 10 µM (PIK3CA(I800L)) was 100% and the Antagonism (P2Y11; 10 uM) was −8.2. For the same compound, the Agonism (P2Y11; 12.5 uM) was −0.1, the remaining binding at 10 µM (FAK) was 88% and the remaining binding at 10 µM (PIK3C2B) was 95%. It also gave a remaining binding at 10 µM (RIPK4) of 81%, a remaining binding at 10 µM (SRMS) of 80% and an Antagonism (Motilin; 10 uM) of −0.7. It also gave an Agonism (Motilin; 12.5 uM) of 1, a remaining binding at 10 µM (PIK3CB) of 100% and a remaining binding at 10 µM (HPK1) of 100%. The remaining binding at 10 µM (MKK7) was 99%, the remaining binding at 10 µM (CDK4-cyclinD1) was 69% and the remaining binding at 10 µM [2] was 100%. For the same compound, the remaining binding at 10 µM (MKNK2) was 91%, the remaining binding at 10 µM [3] was 92% and the remaining binding at 10 µM (NDR1) was 98%. For the same compound, the Antagonism (Ghrelin; 10 uM) was −6.1 and the Agonism (Ghrelin; 12.5 uM) was 0.3.
